We go through 20 molecules from patent publication US6545151B2, “Pentacyclic compound” (Daiichi Pharmaceutical Co., Ltd., priority 1995, dated 2003).

Converted amounts (≈) assume the structure as drawn.

One assay relates to PC-12. Put plainly: MTT cell proliferation test, PC-12. The assay is classed as cell-based. As to conditions: PC-12 tumor cell line, cultured for 3 days, absorbance at 540 nm. As for the experimental part:
(§1) Cells of each of three tumor cell lines, P388, PC-6 and PC-12, were inoculated into a 96 well microplate in an inoculum size of 5.0×10^2 cells/150 μl/well (P388), 5.0×10^3 cells/150 μl/well (PC-6) or 1.0×10^3 cells/150 μl/well (PC-12), and 50 μl/well of each sample was added to the plate 2 hours thereafter in the case of P388 or 24 hours thereafter in the case of the other two. Thereafter, the cells were cultured for 3 days and then 5 mg/ml solution of MTT [3-(4,5-dimethylthiazol-2-yl)-2,5-diphenyl-2H-tetrazolium bromide] was dispensed in 20 μl/well portions into wells of the microplate. Four hours thereafter, the culture medium was removed, 150 μl of dimethyl sulfoxide was added to each well and then absorbance at 540 nm was measured. The antitumor effect is shown as GI50 value (ng/ml) of each drug which decreases cell proliferation in each drug-added group to 50% of that in the control group.
Background: Tetrazolium dyes change colour on reduction, which living cells bring about.

The next assay relates to PC-6. Description: MTT cell proliferation test, PC-6. The assay is classed as cell-based. As to conditions: PC-6 tumor cell line, cultured for 3 days, absorbance at 540 nm. As for the experimental part: as §1
The test system of a further assay is P388. Put plainly: MTT cell proliferation test, P388. As to conditions: P388 tumor cell line, cultured for 3 days, absorbance at 540 nm. The assay is classed as cell-based. As for the experimental part:
as §1

Assay [1] has as its system digestive organ cancers, especially large bowel cancers. As to conditions: clinical tests; cited from earlier work.

On to “7α,9β-4-O-Butanoyl-13-O-[(2R,3R)-3-(tert-butoxycarbonylamino)-3-(2-furyl)-2-hydroxypropionyl]-7-deoxy-4,10-dideacetyl-9-dihydro-7-fluoro-9,10-O-(2-morpholinoethylidene)baccatin III [Inventive Example 81]”, for which the GI50 value with PC-12 was 0.050 ng/mL; in the assay on PC-6, 0.0604 ng/mL; with P388, 0.0048 ng/mL.
For “9β-4-O-Butanoyl-13-O-[(2R,3R)-3-(tert-butoxycarbonylamino)-3-(2-furyl)-2-hydroxypropionyl]-4,10-dideacetyl-9-dihydro-9,10-O-(2-morpholinoethylidene)baccatin III [Inventive Example 22]” the same measures were 0.181 ng/mL, 0.187 ng/mL and 0.0193 ng/mL.
For “9β-13-O-[3-(tert-Butoxycarbonylamino)-2-hydroxy-2-methyl-3-(4-pyridyl)propionyl]-4,10-dideacetyl-9-dihydro-4-O-ethoxycarbonyl-9,10-O-isopropylidenebaccatin III [Inventive Example 101]”, the GI50 value in the assay with PC-12 came to 0.125 ng/mL; in the assay with PC-6 it was 0.409 ng/mL; in the assay with P388, 0.0301 ng/mL.
“9β-13-O-[3-(tert-Butoxycarbonylamino)-2-hydroxy-2-methyl-3-(4-pyridyl)propionyl]-4,10-dideacetyl-9-dihydro-9,10-O-isopropylidene-4-O-propionylbaccatin III [Inventive Example 90]”: the figures for the GI50 value with PC-12, in the assay on PC-6 and in the assay on P388 were 0.0943 ng/mL, 0.209 ng/mL and 0.0519 ng/mL, respectively.
For “9β-13-O-[3-(tert-Butoxycarbonylamino)-2-hydroxy-2-methyl-3-(4-pyridyl)propionyl]-4-O-cyclopropanecarbonyl-4,10-dideacetyl-7-deoxy-9-dihydro-9,10-O-isopropylidenebaccatin III [Inventive Example 65]” the same measures were 0.0684 ng/mL, 0.278 ng/mL and 0.00509 ng/mL.
For “9β-13-O-[3-(tert-Butoxycarbonylamino)-2-hydroxy-2-methyl-3-(4-pyridyl)propionyl]-4-O-cyclopropanecarbonyl-4,10-dideacetyl-9-dihydro-9,10-O-isopropylidenebaccatin III [Inventive Example 60]” the same measures were 0.0698 ng/mL, 0.395 ng/mL and 0.0129 ng/mL.
On to “9β-13-O-[3-(tert-Butoxycarbonylamino)-2-hydroxy-2-methyl-3-(4-pyridyl)propionyl]-4-O-cyclopropanecarbonyl-7-deoxy-4,10-dideacetyl-6,7-didehydro-9-dihydro-9,10-O-isopropylidenebaccatin III [Inventive Example 121]”, for which the GI50 value stood at 0.0498 ng/mL with PC-12, 0.803 ng/mL in the assay on PC-6 and 0.00173 ng/mL with P388.
For “9β-13-O-[3-(tert-Butoxycarbonylamino)-2-hydroxy-2-methyl-3-(4-pyridyl)propionyl]-10-deacetyl-7-deoxy-9-dihydro-9,10-O-isopropylidenebaccatin III [Inventive Example 95]” the same measures were 0.0121 ng/mL, 0.0992 ng/mL and 0.0034 ng/mL.
For “9β-13-O-[3-(tert-Butoxycarbonylamino)-3-(2-furyl)-2-hydroxy-2-methylpropionyl]-4-O-cyclopropanecarbonyl-4,10-dideacetyl-9-dihydro-9,10-O-(2-morpholinoethylidene)baccatin III [Inventive Example 57]”, the figures for the GI50 value in the assay with PC-12, in the assay on PC-6 and with P388 were 0.0739 ng/mL, 0.734 ng/mL and 0.0135 ng/mL, respectively.
For “9β-13-O-[(2R,3R)-3-(tert-Butoxycarbonylamino)-2-hydroxy-3-(2-thienyl)propionyl]-10-deacetyl-7-deoxy-9-dihydro-9,10-O-(2-morpholinoethylidene)baccatin III [Inventive Example 98]” the same measures were 0.022 ng/mL, 0.0696 ng/mL and 0.0126 ng/mL.
For “9β-13-O-[(2R,3R)-3-(tert-Butoxycarbonylamino)-3-(2-furyl)-2-hydroxypropionyl]-4,10-dideacetyl-9-dihydro-9,10-O-(2-morpholinoethylidene)-4-O-propionylbaccatin III [Inventive Example 25]” the same measures were 0.234 ng/mL, 1.31 ng/mL and 0.0549 ng/mL.
As for “9β-13-O-[(2R,3R)-3-(tert-Butoxycarbonylamino)-3-(2-furyl)-2-hydroxypropionyl]-4-O-cyclopropanecarbonyl-4,10-dideacetyl-9-dihydro-9,10-O-(2-morpholinoethylidene)baccatin III [Inventive Example 51]”, the GI50 value in the assay on PC-12 worked out at 0.0669 ng/mL; in the assay on PC-6, 0.354 ng/mL; in the assay on P388 it was 0.00754 ng/mL.
For “9β-13-O-[(2R,3R)-3-(tert-Butoxycarbonylamino)-3-(2-furyl)-2-hydroxypropionyl]-4-O-cyclopropanecarbonyl-7-deoxy-4,10-dideacetyl-6,7-didehydro-9-dihydro-9,10-O-(2-morpholinoethylidene)baccatin III [Inventive Example 123]” the same measures were 0.167 ng/mL, 0.366 ng/mL and 0.0158 ng/mL.
For the molecule “9β-13-O-[(2R,3R)-3-(tert-Butoxycarbonylamino)-3-(2-furyl)-2-hydroxypropionyl]-10-deacetyl-7-deoxy-9-dihydro-9,10-O-(2-dimethylaminoethylidene)baccatin III [Inventive Example 105]”, the GI50 value in the assay with PC-12 was found to be 0.0643 ng/mL; with PC-6, 0.190 ng/mL; in the assay on P388 it was 0.0475 ng/mL.
On to “9β-13-O-[(2R,3R)-3-(tert-Butoxycarbonylamino)-3-(2-furyl)-2-hydroxypropionyl]-10-deacetyl-7-deoxy-9-dihydro-9,10-O-(2-morpholinoethylidene)baccatin III [Inventive Example 79]”, for which the GI50 value came to 0.0264 ng/mL in the assay on PC-12, 0.0673 ng/mL with PC-6 and 0.00689 ng/mL with P388.
For “9β-13-O-[(2R,3S)-3-(tert-Butoxycarbonylamino)-2-hydroxy-3-(2-pyridyl)propionyl]-4-O-cyclopropanecarbonyl-4,10-dideacetyl-9-dihydro-9,10-O-isopropylidenebaccatin III [Inventive Example 69]” the same measures were 0.0466 ng/mL, 0.0915 ng/mL and 0.0161 ng/mL.
For “9β-13-O-[(2R,3S)-3-(tert-Butoxycarbonylamino)-2-hydroxy-3-(4-pyridyl)propionyl]-4-O-cyclopropanecarbonyl-4,10-dideacetyl-7-deoxy-9-dihydro-9,10-O-isopropylidenebaccatin III [Inventive Example 70]” the same measures were 0.0184 ng/mL, 0.160 ng/mL and 0.00137 ng/mL.
For “9β-13-O-[(2R,3S)-3-(tert-Butoxycarbonylamino)-2-hydroxy-3-phenylpropionyl]-4-O-cyclopropanecarbonyl-4,10-dideacetyl-9-dihydro-9,10-O-(2-morpholinoethylidene)baccatin III [Inventive Example 53]” the same measures were 0.0758 ng/mL, 0.874 ng/mL and 0.0128 ng/mL.
In the case of `CC(=O)O[C@H]1C(=O)[C@@]2(C)[C@H]([C@H](OC(=O)c3ccccc3)[C@]3(O)C[C@H](OC(=O)[C@H](O)[C@@H](NC(=O)c4ccccc4)c4ccccc4)C(C)=C1C3(C)C)[C@]1(OC(C)=O)CO[C@@H]1C[C@@H]2O` [Taxol, reference compound], in assay [1], the “efficacy on digestive organ cancers, especially large bowel cancers” value is “low efficacy”. The figures for the GI50 value in the assay on PC-12, in the assay on PC-6 and in the assay with P388 were 82.2 ng/mL (≈ 96.3 nM), 1.20 ng/mL (≈ 1.41 nM) and 4.36 ng/mL (≈ 5.11 nM), respectively.
For the molecule `CC(=O)O[C@@]12CO[C@@H]1C[C@H](O)[C@@]1(C)C(=O)[C@H](O)C3=C(C)[C@@H](OC(=O)[C@H](O)[C@@H](NC(=O)OC(C)(C)C)c4ccccc4)C[C@@](O)([C@@H](OC(=O)c4ccccc4)[C@H]21)C3(C)C` [Taxotere, reference compound], the “efficacy on digestive organ cancers, especially large bowel cancers” value in assay [1] is “low efficacy”. Besides, the figures for the GI50 value in the assay on PC-12, in the assay on PC-6 and with P388 were 19.1 ng/mL (≈ 23.6 nM), 1.16 ng/mL (≈ 1.44 nM) and 1.62 ng/mL (≈ 2.01 nM), respectively.
